# Laboratory results reported in US20160002204A1 (Board of Regents, The University of Texas System, priority 2014, published 2016).
# pIC50: −log10 of the molar value.
# Biological target: T1, GLS1 (purified recombinant human GAC) (Homo sapiens, UniProt O94925)
# T1 sequence (O94925 55-598 isoform O94925-3 limits assumed): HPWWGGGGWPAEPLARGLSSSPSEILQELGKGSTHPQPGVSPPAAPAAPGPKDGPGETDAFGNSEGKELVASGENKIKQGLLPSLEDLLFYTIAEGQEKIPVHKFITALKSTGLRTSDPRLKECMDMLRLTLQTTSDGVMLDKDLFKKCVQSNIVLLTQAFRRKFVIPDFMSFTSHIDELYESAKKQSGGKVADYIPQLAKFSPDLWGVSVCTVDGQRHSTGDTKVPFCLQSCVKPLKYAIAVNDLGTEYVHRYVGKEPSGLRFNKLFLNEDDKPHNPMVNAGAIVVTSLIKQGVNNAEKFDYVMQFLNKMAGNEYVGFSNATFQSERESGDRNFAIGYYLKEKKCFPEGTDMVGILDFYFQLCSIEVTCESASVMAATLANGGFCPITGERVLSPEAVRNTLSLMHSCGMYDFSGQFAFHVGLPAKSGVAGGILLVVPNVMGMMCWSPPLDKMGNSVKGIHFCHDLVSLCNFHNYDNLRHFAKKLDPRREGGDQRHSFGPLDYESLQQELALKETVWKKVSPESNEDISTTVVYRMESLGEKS
# Test: GLS1 enzymatic activity assay (dual-coupled, Amplex UltraRed/resorufin)
# Type: biochemical
# Method: GLS1 Enzymatic Activity Assay
# The inhibition of purified recombinant human GAC by varying concentrations of inhibitors is assessed via a dual-coupled enzymatic assay. The glutamate produced by the glutaminase reaction is used by glutamate oxidase to produce α-ketoglutarate, ammonia, and hydrogen peroxide, with this hydrogen peroxide subsequently being used by horseradish peroxidase to produce resorufin in the presence of Amplex UltraRed. The assay buffer consisted of 50 mM Hepes (pH 7.4), 0.25 mM EDTA and 0.1 mM Triton X-100. GAC was incubated with potassium phosphate (10 minutes at room temperature) prior to incubation with inhibitor (10 minutes at room temperature). The final reaction conditions were as follows: 2 nM GAC, 50 mM potassium phosphate, 100 mU/mL glutamate oxidase (Sigma), 1 mM glutamine (Sigma), 100 mU/mL horseradish peroxidase (Sigma), 75 μM Amplex UltraRed (Life Technologies), and 1% (v/v) DMSO. The production of resorufin was monitored on a Perkin Elmer Envision plate reader (excitation 530 nm, emission 590 nm) either in a kinetics or endpoint mode (at 20 minutes). IC50 values were calculated using a four-parameter logistic curve fit.
row,Compound,pIC50
1,"COCCNC(=O)c1nnc(CCCCn2ccc(NC(=O)Cc3ccccn3)cc2=O)s1 [Example 452, N-(2-methoxyethyl)-5-(4-{2-oxo-4-[2-(pyridin-2-yl)acetamido]-1,2-dihydropyridin-1-yl]butyl)-1,3,4-thiadiazole-2-carboxamide]",5.30 to 6.30
2,"CC(=O)Nc1ccn(CCCCn2cc(C(=O)NCc3cccc(C(F)(F)F)c3)nn2)c(=O)c1 [Example 142, 1-[4-(4-acetamido-2-oxo-1,2-dihydropyridin-1-yl)butyl]-N-{[3-(trifluoromethyl)phenyl]methyl}-1H-1,2,3-triazole-4-carboxamide]",5.30 to 6.30
3,"Nc1ccn(CCCCn2cc(C(=O)NCc3cccc(C(F)(F)F)c3)nn2)c(=O)c1 [Example 140, 1-[4-(4-amino-2-oxo-1,2-dihydropyridin-1-yl)butyl]-N-{[3-(trifluoromethyl)phenyl]methyl}-1H-1,2,3-triazole-4-carboxamide]",5.30 to 6.30
4,"O=C(Cc1ccccn1)Nc1ccn(CCCCc2nnc(C(=O)NCc3ccccn3)s2)c(=O)c1 [Example 448, 5-(4-{2-oxo-4-[2-(pyridin-2-yl)acetamido]-1,2-dihydropyridin-1-yl}butyl)-N-(pyridin-2-ylmethyl)-1,3,4-thiadiazole-2-carboxamide]",5.30 to 6.30
5,"O=C(Cc1cccc(OC(F)(F)F)c1)Nc1ccn(CCCCn2cc(C(=O)NCc3ccccc3)nn2)c(=O)n1 [Example 115, N-benzyl-1-[4-(2-oxo-4-{2-[3-(trifluoromethoxy)phenyl]acetamido}-1,2-dihydropyrimidin-1-yl)butyl]-1H-1,2,3-triazole-4-carboxamide]",5.30 to 6.30
6,"CCN1CCC(CC(=O)Nc2ccn(CCCCn3cc(C(=O)NCc4cccc(OC(F)(F)F)c4)nn3)c(=O)c2)CC1 [Example 207, 1-(4-{4-[2-(1-ethylpiperidin-4-yl)acetamido]-2-oxo-1,2-dihydropyridin-1-yl}butyl)-N-{[3-(trifluoromethoxy)phenyl]methyl}-1H-1,2,3-triazole-4-carboxamide]",5.30 to 6.30
7,"C[C@@H](NC(=O)c1ccn(CCCCn2cc(C(=O)NCc3cccc(OC(F)(F)F)c3)nn2)c(=O)c1)C(N)=O [Example 137, 1-[4-(4-{[(1R)-1-carbamoylethyl]carbamoyl}-2-oxo-1,2-dihydropyridin-1-yl)butyl]-N-{[3-(trifluoromethoxy)phenyl]methyl}-1H-1,2,3-triazole-4-carboxamide]",5.30 to 6.30
8,"CCN1CCC(CC(=O)Nc2ccn(CCC(F)Cn3cc(C(=O)NCc4cccc(OC(F)(F)F)c4)nn3)c(=O)c2)CC1 (stereo not shown) [Example 218, 1-(4-{4-[2-(1-ethylpiperidin-4-yl)acetamido]-2-oxo-1,2-dihydropyridin-1-yl}-2-fluorobutyl)-N-{[3-(trifluoromethoxy)phenyl]methyl}-1H-1,2,3-triazole-4-carboxamide]",6.30 to 7.00
9,"COCCCNc1ccn(CCCCc2ccc(NC(=O)Cc3ccccc3)nn2)c(=O)n1 [Example 25, N-(6-(4-(4-((3-methoxypropyl)amino)-2-oxopyrimidin-1(2H)-yl)butyl)pyridazin-3-yl)-2-phenylacetamide]",5.30 to 6.30
10,"Cc1ccc(CNC(=O)c2nnc(CCCCn3ccc(NC(=O)Cc4ccccn4)cc3=O)s2)cn1 [Example 444, N-[(6-methylpyridin-3-yl)methyl]-5-(4-{2-oxo-4-[2-(pyridin-2-yl)acetamido]-1,2-dihydropyridin-1-yl}butyl)-1,3,4-thiadiazole-2-carboxamide]",6.30 to 7.00
11,"O=C(Cc1ccccn1)Nc1ccn(CCCCc2nnc(C(=O)NCc3ncccc3F)s2)c(=O)c1 [Example 457, N-[(3-fluoropyridin-2-yl)methyl]-5-(4-{2-oxo-4-[2-(pyridin-2-yl)acetamido]-1,2-dihydropyridin-1-yl}butyl)-1,3,4-thiadiazole-2-carboxamide]",5.30 to 6.30
12,"Nc1ccn(CCC(F)Cn2cc(C(=O)NCc3cccc(C(F)(F)F)n3)nn2)c(=O)c1F (stereo not shown) [Example 321, 1-[4-(4-amino-3-fluoro-2-oxo-1,2-dihydropyridin-1-yl)-2-fluorobutyl]-N-{[6-(trifluoromethyl)pyridin-2-yl]methyl}-1H-1,2,3-triazole-4-carboxamide]",< 5.30
13,"CCOC(=O)c1cn(CC(F)CCn2ccc(NC(=O)CC3CCCCC3)c(F)c2=O)nn1 (stereo not shown) [Example 225, ethyl 1-{4-[4-(2-cyclohexylacetamido)-3-fluoro-2-oxo-1,2-dihydropyridin-1-yl]-2-fluorobutyl}-1H-1,2,3-triazole-4-carboxylate]",5.30 to 6.30
14,"CC(C)(C)OC(=O)Nc1ccn(CCC(F)Cn2cc(C(=O)NCc3cccc(C(F)(F)F)n3)nn2)c(=O)c1F (stereo not shown) [Example 319, tert-butyl N-(3-fluoro-1-{3-fluoro-4-[4-({[6-(trifluoromethyl)pyridin-2-yl]methyl}carbamoyl)-1H-1,2,3-triazol-1-yl]butyl}-2-oxo-1,2-dihydropyridin-4-yl)carbamate]",6.30 to 7.00
15,"Nc1ccn(CCC(F)Cn2cc(C(=O)NCc3cc(C(F)(F)F)ccn3)nn2)c(=O)c1F (stereo not shown) [Example 322, 1-[4-(4-amino-3-fluoro-2-oxo-1,2-dihydropyridin-1-yl)-2-fluorobutyl]-N-{[4-(trifluoromethyl)pyridin-2-yl]methyl}-1H-1,2,3-triazole-4-carboxamide]",< 5.30
16,"Nc1nnc(CCCCn2ccc(NC(=O)Cc3ccccc3)cc2=O)s1 [Example 30, N-{1-[4-(5-amino-1,3,4-thiadiazol-2-yl)butyl]-2-oxo-1,2-dihydropyridin-4-yl}-2-phenylacetamide]",5.30 to 6.30
17,"COCCNC(=O)c1nnc(CCCCn2ccc(NC(=O)Cc3ccccc3)cc2=O)s1 [Example 449, N-(2-methoxyethyl)-5-{4-[2-oxo-4-(2-phenylacetamido)-1,2-dihydropyridin-1-yl]butyl}-1,3,4-thiadiazole-2-carboxamide]",5.30 to 6.30
18,"O=C1CN(CC(=O)Nc2ccn(CCC(F)Cn3cc(C(=O)NCc4cccc(OC(F)(F)F)c4)nn3)c(=O)c2)CCN1 (stereo not shown) [Example 230, 1-(2-fluoro-4-{2-oxo-4-[2-(3-oxopiperazin-1-yl)acetamido]-1,2-dihydropyridin-1-yl}butyl)-N-{[3-(trifluoromethoxy)phenyl]methyl}-1H-1,2,3-triazole-4-carboxamide]",6.30 to 7.00
19,"CC(C)(C)OC(=O)NCc1cn(CCCCn2ccc(NC(=O)Cc3ccccc3)cc2=O)nn1 [Example 9, tert-Butyl N-[(1-{4-[2-oxo-4-(2-phenylacetamido)-1,2-dihydropyridin-1-yl]butyl}-1H-1,2,3-triazol-4-yl)methyl]carbamate]",5.30 to 6.30
20,"Nc1ccn(CCCCc2ccc(NC(=O)Cc3ccccc3)nn2)c(=O)n1 [Example 21, N-(6-(4-(4-amino-2-oxopyrimidin-1(2H)-yl)butyl)pyridazin-3-yl)-2-phenylacetamide]",5.30 to 6.30
21,"O=C(NCc1ccccc1)c1ccn(CCCn2cc(C(=O)NCc3cccc(OC(F)(F)F)c3)nn2)c(=O)c1 [Example 437, N-benzyl-2-oxo-1-{3-[4-({[3-(trifluoromethoxy)phenyl]methyl}carbamoyl)-1H-1,2,3-triazol-1-yl]propyl}-1,2-dihydropyridine-4-carboxamide]",< 5.30
22,"C[C@H](NC(=O)c1ccn(CCCCn2cc(C(=O)NCc3cccc(OC(F)(F)F)c3)nn2)c(=O)c1)C(N)=O [Example 138, 1-[4-(4-{[(1S)-1-carbamoylethyl]carbamoyl}-2-oxo-1,2-dihydropyridin-1-yl)butyl]-N-{[3-(trifluoromethoxy)phenyl]methyl}-1H-1,2,3-triazole-4-carboxamide]",5.30 to 6.30
23,"O=C(Cc1ccccc1)Nc1ccn(CCCn2cc(C(=O)NCc3cccc(OC(F)(F)F)c3)nn2)c(=O)c1 [Example 436, 1-{3-[2-oxo-4-(2-phenylacetamido)-1,2-dihydropyridin-1-yl]propyl}-N-{[3-(trifluoromethoxy)phenyl]methyl}-1H-1,2,3-triazole-4-carboxamide]",< 5.30
24,"CN1CCN(CC(=O)Nc2ccn(CCC(F)Cn3cc(C(=O)NCc4cccc(OC(F)(F)F)c4)nn3)c(=O)c2)CC1 (stereo not shown) [Example 254, 1-(2-fluoro-4-{4-[2-(4-methylpiperazin-1-yl)acetamido]-2-oxo-1,2-dihydropyridin-1-yl}butyl)-N-{[3-(trifluoromethoxy)phenyl]methyl}-1H-1,2,3-triazole-4-carboxamide]",6.30 to 7.00
25,"CC(C)CS(=O)(=O)Nc1ccn(CCCCc2ccc(NC(=O)Cc3ccccc3)nn2)c(=O)n1 [Example 26, N-(6-(4-(4-(2-methylpropylsulfonamido)-2-oxopyrimidin-1(2H)-yl)butyl)pyridazin-3-yl)-2-phenylacetamide]",5.30 to 6.30
